Biological target: T1, KCNQ2/3 channels (Homo sapiens, UniProt O43525+O43526)
T1 construct: expressed in transfected cells
Assay: Fluorescence assay using a voltage sensitive dye (fluorimetry)
Assay type: cell-based
Conditions: CHO-K1 cells expressing KCNQ2/3 channels; for EC50: agonistic activity; for Emax: read-out: Fluorimetry % efficacy (retigabine 50 μM = 100%)
In short: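 Agonist EC50s come from the F2 vs F1 fluorescence comparison, F2 taken at the peak after KCl depolarisation (92 mM final) and F1 after 30 min compound exposure at room temperature. Assay uses KCNQ2/3-expressing CHO-K1 cells stained 45 min with a red voltage-sensitive dye in pH 7.4 ES buffer.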

| SMILES | EC50 | Emax (retigabine 50 μM = 100%) | Fluorimetry % efficacy (retigabine 50 μM = 100%) (retigabine 50 μM = 100%) |
| --- | --- | --- | --- |
| Cc1ccc(CCNC(=O)c2cccnc2SCCCc2ccc(F)cc2)cc1 [compound 90, 2-[3-(4-Fluorophenyl)-propylsulfanyl]-N-[2-(p-tolyl)-ethyl]-pyridine-3-carboxylic acid amide] | – | 37% | – |
| O=C(NCc1cccs1)c1cccnc1SC1CCCCC1Cc1ccccc1 (centres unmarked) [compound 108, 2-[(2-Benzyl-cyclohexyl)sulfanyl]-N-(thiophen-2-yl-methyl)-pyridine-3-carboxylic acid amide] | 165 nM | 143% | – |
| C[C@H](CCc1ccccc1)Sc1ncccc1C(=O)NCCC(C)(C)C [compound 153, N-(3,3-Dimethyl-butyl)-2-[[(1R)-1-methyl-3-phenyl-propyl]sulfanyl]-pyridine-3-carboxylic acid amide] | 1250 nM | 155% | – |
| O=C(NCc1cccc(C(F)(F)F)c1)c1cccnc1SCCCc1ccc(F)cc1 [compound 59, 2-[3-(4-Fluorophenyl)-propylsulfanyl]-N-[[3-(trifluoromethyl)phenyl]-methyl]-pyridine-3-carboxylic acid amide] | 210 nM | 83% | – |
| O=C(NCCCn1cncn1)c1cccnc1SCCCc1ccc(F)cc1 [compound 157, 2-[3-(4-Fluorophenyl)-propylsulfanyl]-N-[3-(1H-[1,2,4]triazol-1-yl)-propyl]-pyridine-3-carboxylic acid amide] | – | 88% | – |
| COc1ccc(CCCSc2ncccc2C(=O)NCC2CC3CCC2C3)cc1 (centres unmarked) [compound 56, N-(5-Bicyclo[2.2.1]heptanyl-methyl)-2-[3-(4-methoxyphenyl)-propylsulfanyl]-pyridine-3-carboxylic acid amide] | 1010 nM | 251% | – |
| O=C(NCC1CC2CCC1C2)c1cccnc1SCCOc1ccc(F)cc1 (centres unmarked) [compound 49, N-(5-Bicyclo[2.2.1]heptanyl-methyl)-2-[2-(4-fluoro-phenoxy)-ethylsulfanyl]-pyridine-3-carboxylic acid amide] | 231 nM | 174% | – |
| CC(C)CCNC(=O)c1cccnc1SCCCc1cccc(C(F)(F)F)c1 [compound 208, N-(3-Methyl-butyl)-2-[3-[3-(trifluoromethyl)phenyl]-propylsulfanyl]-pyridine-3-carboxylic acid amide] | 27 nM | 207% | – |
| O=C(NCc1ccc(O)cc1)c1cccnc1SCCCc1ccc(F)cc1 [compound 88, 2-[3-(4-Fluorophenyl)-propylsulfanyl]-N-[(4-hydroxyphenyl)-methyl]-pyridine-3-carboxylic acid amide] | 3760 nM | 53% | – |
| O=C(NCCc1cccnc1)c1cccnc1SCCCc1ccc(F)cc1 [compound 81, 2-[3-(4-Fluorophenyl)-propylsulfanyl]-N-(2-pyridine-3-yl-ethyl)-pyridine-3-carboxylic acid amide] | 8020 nM | 89% | – |
| CC(CCc1cccc(C(F)(F)F)c1)Sc1ncccc1C(=O)NCc1ccc(F)cc1 (centres unmarked) [compound 132, N-[(4-Fluorophenyl)-methyl]-2-[[1-methyl-3-[3-(trifluoromethyl)phenyl]-propyl]sulfanyl]-pyridine-3-carboxylic acid amide] | 82 nM | 120% | – |
| O=C(NCc1cccs1)c1cccnc1SCCCc1ccncc1 [compound 101, 2-(3-Pyridin-4-yl-propylsulfanyl)-N-(thiophen-2-yl-methyl)-pyridine-3-carboxylic acid amide] | – | 38% | – |
| O=C(NCC12CCC(CC1)C2)c1cccnc1SCCCc1ccc(F)cc1 [compound 206, N-(1-Bicyclo[2.2.1]heptanyl-methyl)-2-[3-(4-fluorophenyl)-propylsulfanyl]-pyridine-3-carboxylic acid amide] | 40 nM | 293% | – |
| COc1ccc(CNC(=O)c2cccnc2SCCCc2ccc(F)cc2)cc1 [compound 57, 2-[3-(4-Fluorophenyl)-propylsulfanyl]-N-[(4-methoxyphenyl)-methyl]-pyridine-3-carboxylic acid amide] | 252 nM | 83% | – |
| COCCNC(=O)c1cccnc1SCCCc1ccc(F)cc1 [compound 172, 2-[3-(4-Fluorophenyl)-propylsulfanyl]-N-(2-methoxy-ethyl)-pyridine-3-carboxylic acid amide] | 1050 nM | 196% | – |
| CC(CCc1cccc(F)c1)Sc1ncccc1C(=O)NCc1ccc(F)cc1 (centres unmarked) [compound 201, N-[(4-Fluorophenyl)-methyl]-2-[[3-(3-fluorophenyl)-1-methyl-propyl]sulfanyl]-pyridine-3-carboxylic acid amide] | 40 nM | 128% | – |

Other lines, results leading:

| EC50 | Emax (retigabine 50 μM = 100%) | Fluorimetry % efficacy (retigabine 50 μM = 100%) (retigabine 50 μM = 100%) | SMILES |
| --- | --- | --- | --- |
| 17 nM | 110% | – | O=C(NCc1cccc(F)c1)c1cccnc1SCCC(F)(F)c1ccc(F)cc1 [compound 168, 2-[[3,3-Difluoro-3-(4-fluorophenyl)-propyl]sulfanyl]-N-[(3-fluorophenyl)-methyl]-pyridine-3-carboxylic acid amide] |
| 97 nM | 260% | – | O=C(NCC1C2CCC1CC2)c1cccnc1SCCCc1ccc(F)cc1 (centres unmarked) [compound 142, N-(7-Bicyclo[2.2.1]heptanyl-methyl)-2-[3-(4-fluorophenyl)-propylsulfanyl]-pyridine-3-carboxylic acid amide] |
| – | 29% | – | O=C(NCc1cccs1)c1cccnc1SCCCc1cccnc1 [compound 98, 2-(3-Pyridin-3-yl-propylsulfanyl)-N-(thiophen-2-yl-methyl)-pyridine-3-carboxylic acid amide] |
| 366 nM | 93% | – | O=C(NCc1ccc2c(c1)OCCO2)c1cccnc1SCCCc1ccc(F)cc1 [compound 137, N-(2,3-Dihydro-[1,4]benzodioxin-6-yl-methyl)-2-[3-(4-fluorophenyl)-propylsulfanyl]-pyridine-3-carboxylic acid amide] |
| 37 nM | 171% | – | CC(CSc1ncccc1C(=O)NCc1cccs1)Sc1ccc(F)cc1 (centres unmarked) [compound 19, 2-[2-[(4-Fluorophenyl)sulfanyl]-propylsulfanyl]-N-(thiophen-2-yl-methyl)-pyridine-3-carboxylic acid amide] |
| 1960 nM | 85% | – | Cc1ccnc(SCCCc2ccc(F)cc2)c1C(=O)NCCC(C)(C)C [compound 148, N-(3,3-Dimethyl-butyl)-2-[3-(4-fluorophenyl)-propylsulfanyl]-4-methyl-pyridine-3-carboxylic acid amide] |
| 101 nM | 116% | – | O=C(NCc1cccc(OC(F)(F)F)c1)c1cccnc1SCCCc1ccc(F)cc1 [compound 87, 2-[3-(4-Fluorophenyl)-propylsulfanyl]-N-[[3-(trifluoromethyloxy)-phenyl]-methyl]-pyridine-3-carboxylic acid amide] |
| 8830 nM | 87% | – | O=C(NCCO)c1cccnc1SCCC(F)(F)c1ccc(F)cc1 [compound 211, 2-[[3,3-Difluoro-3-(4-fluorophenyl)-propyl]sulfanyl]-N-(2-hydroxy-ethyl)-pyridine-3-carboxylic acid amide] |
| 307 nM | 61% | – | O=C(NCC1Cc2ccccc2C1)c1cccnc1SCCCc1ccc(F)cc1 [compound 120, N-(2,3-Dihydro-1H-inden-2-yl-methyl)-2-[3-(4-fluorophenyl)-propylsulfanyl]-pyridine-3-carboxylic acid amide] |
| 3140 nM | 154% | – | O=C(NCCCn1cccn1)c1cccnc1SCCCc1ccc(F)cc1 [compound 135, 2-[3-(4-Fluorophenyl)-propylsulfanyl]-N-[3-(1H-pyrazol-1-yl)-propyl]-pyridine-3-carboxylic acid amide] |
| 134 nM | 196% | – | CCCCNC(=O)c1cccnc1SCCCc1ccc(F)cc1 [compound 97, N-Butyl-2-[3-(4-fluorophenyl)-propylsulfanyl]-pyridine-3-carboxylic acid amide] |
| 111 nM | 129% | – | Cc1cccc(CCCSc2ncccc2C(=O)NCc2cccs2)c1 [compound 103, 2-[3-(m-Tolyl)-propylsulfanyl]-N-(thiophen-2-yl-methyl)-pyridine-3-carboxylic acid amide] |
| 660 nM | 194% | – | CCCNC(=O)c1cccnc1SCCCc1ccc(F)cc1 [compound 96, 2-[3-(4-Fluorophenyl)-propylsulfanyl]-N-propyl-pyridine-3-carboxylic acid amide] |
| – | 30% | – | O=C(NCC1CCc2ccccc2C1)c1cccnc1SCCCc1ccc(F)cc1 (centres unmarked) [compound 119, 2-[3-(4-Fluorophenyl)-propylsulfanyl]-N-(1,2,3,4-tetrahydro-naphthalen-2-yl-methyl)-pyridine-3-carboxylic acid amide] |
| 76 nM | 192% | – | CC(C)CCNC(=O)c1cccnc1SC(C)CCc1ccc(F)cc1 (centres unmarked) [compound 177, 2-[[3-(4-Fluorophenyl)-1-methyl-propyl]sulfanyl]-N-(3-methyl-butyl)-pyridine-3-carboxylic acid amide] |
| 170 nM | – | 132% | O=C(NCc1cccs1)c1cccnc1SCCCc1ccccc1 [compound 1] |
| 140 nM | 259% | – | O=C(NCC1CC2CCC1C2)c1cccnc1SCCCc1cc(F)cc(C(F)(F)F)c1 (centres unmarked) [compound 69, N-(5-Bicyclo[2.2.1]heptanyl-methyl)-2-[3-[3-fluoro-5-(trifluoromethyl)-phenyl]-propylsulfanyl]-pyridine-3-carboxylic acid amide] |
| – | 28% | – | O=C(NCc1ccc2ccccc2c1)c1cccnc1SCCCc1ccc(F)cc1 [compound 136, 2-[3-(4-Fluorophenyl)-propylsulfanyl]-N-(naphthalen-2-yl-methyl)-pyridine-3-carboxylic acid amide] |
